Here are results for one molecule from paper PMC3745430, “Novel Multiplexed Assay for Identifying SH2 Domain Antagonists of STAT Family Proteins” (PLoS ONE, 2013).

What is called IC50 is the concentration that gives 50% inhibition.

For assay [1], the target named is T1, STAT5b(136–703) (Homo sapiens, UniProt P51692).
T1 construct: 136 to 703 of human STAT5b; 6×His-tag (N); made in house; host or cells: E. coli BL-21 Star (DE3) pLysS co-transformed with pBirAcm
T1 sequence (P51692 136-703): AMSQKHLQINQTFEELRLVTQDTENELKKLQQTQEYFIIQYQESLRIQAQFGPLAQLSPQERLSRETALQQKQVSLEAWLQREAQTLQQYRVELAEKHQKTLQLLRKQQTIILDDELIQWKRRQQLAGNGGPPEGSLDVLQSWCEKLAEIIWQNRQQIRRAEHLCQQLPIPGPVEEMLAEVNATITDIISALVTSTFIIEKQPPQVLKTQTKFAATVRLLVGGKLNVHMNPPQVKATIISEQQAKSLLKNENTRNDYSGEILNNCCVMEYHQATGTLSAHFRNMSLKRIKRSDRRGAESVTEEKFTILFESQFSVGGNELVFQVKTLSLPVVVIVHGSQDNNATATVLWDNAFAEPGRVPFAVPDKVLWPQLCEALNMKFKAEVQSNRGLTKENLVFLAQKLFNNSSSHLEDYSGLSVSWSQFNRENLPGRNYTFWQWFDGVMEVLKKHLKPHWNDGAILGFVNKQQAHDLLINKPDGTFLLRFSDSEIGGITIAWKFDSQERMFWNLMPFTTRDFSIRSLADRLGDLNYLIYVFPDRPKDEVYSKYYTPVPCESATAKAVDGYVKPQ
Briefly: Multiplexed Alpha assay, STAT5b-SH2 binding (AlphaScreen). The conditions noted are these: multiplexed binding assay; mean and SEM, three independent experiments; read-out: IC50 STAT5b-SH2 binding (STAT5b). On the procedure:
(§1) Both AlphaLISA and AlphaScreen are bead-based nonradioactive binding assay systems for detecting biomolecular interactions in a microplate format. The binding of the biological partners brings the donor and acceptor beads into close proximity, and AlphaLISA produces a specific signal around 615 nm and AlphaScreen emits a broad signal between 520 and 620 nm. The assays were performed in a final reaction volume of 25 µL of the assay buffer, which contained 10 mM HEPES-NaOH (pH 7.4), 50 mM NaCl, 1 mM EDTA (pH 8.0), 0.1% (w/v) NP-40, and 10 ng/µL (w/v) BSA in a 96-well microplate at 25°C. The labeled phosphotyrosyl (pTyr, pY) peptide probes were DIG-GpYLPQTV and FITC-GpYLVLDKW for STAT3 and STAT5b, respectively. In the single assay for STAT3 binding, 100 nM STAT3(136–705) protein was incubated with a test compound dissolved in DMSO for 30 min, and 1.0 nM DIG-GpYLPQTV was added and the mixture was incubated for 90 min. Streptavidin-coated donor beads (0.25 µg/well) and anti-DIG AlphaLISA acceptor beads (0.25 µg/well) were added and incubated for 90 min before the signals were measured with EnVison Xcite (PerkinElmer Life Sciences). In the single assay for STAT5b binding, 20 nM STAT5b(136–703) was incubated with a test compound for 30 min, and 1.0 nM FITC-GpYLVLDKW was added and incubated for 90 min. Streptavidin-coated donor beads (0.25 µg/well) and anti-FITC AlphaScreen acceptor beads (0.25 µg/well) were added and incubated for 90 min before the signals were measured with EnVison Xcite. In the multiplexed assay, 100 nM STAT3(136–705) and 20 nM STAT5b(136–703) were incubated with a test compound for 30 min, and 1.0 nM DIG-GpYLPQTV and 1.0 nM FITC-GpYLVLDKW were added and incubated for 90 min. Streptavidin-coated donor beads (0.50 µg/well), anti-DIG AlphaLISA (0.25 µg/well), and anti-FITC AlphaScreen acceptor beads (0.25 µg/well) were added and incubated for 90 min before the signals were measured with EnVison Xcite. AlphaLISA and AlphaScreen signals for measuring STAT3- and STAT5b-SH2 binding, respectively, can be separately measured by using a dysprosium 572 nm and a europium 615 nm narrow bandwidth filter. In inhibitory assays, these signals for the bound state and the free state were represented as 0% and 100% inhibition, respectively. The bound state was measured by incubating the labeled peptide and the protein without test compounds. The free state was measured by incubating the same mixture with an additional 10 µM non-labeled peptide contained phosphorylated tyrosine, which competitively binds to its corresponding protein. The IC50 value was calculated by Graph pad prism 4.0. The mean and the standard error (SEM) of IC50 values were determined from three independent experiments. The Z’ value was calculated using the equation Z’ = 1–(3×SD_bound +3×SD_free)/(Signal_bound – Signal_free). STAT1 and Grb2 binding assays were performed as described in previous report. In the assays for selectivity of Compound 1, 100 pM biotinylated DIG or 100 pM biotinylated FITC was incubated with 10 µM or 30 µM Compound 1 for 30 min. Streptavidin-coated donor beads (0.25 µg/well) and anti-DIG AlphaLISA acceptor beads (0.25 µg/well) or anti-FITC AlphaScreen acceptor beads (0.25 µg/well) were added and incubated for 90 min before the signals were measured with EnVison Xcite.

In assay [2] the target is T2, STAT3(136–705) (Homo sapiens, UniProt P40763).
T2 construct: amino acids 136 to 705 of human STAT3 and 136 to 703 of human STAT5b; 6×His-tag (N); made in house; host or cells: E. coli BL-21 Star (DE3) pLysS co-transformed with pBirAcm
T2 sequence (P40763 136-705): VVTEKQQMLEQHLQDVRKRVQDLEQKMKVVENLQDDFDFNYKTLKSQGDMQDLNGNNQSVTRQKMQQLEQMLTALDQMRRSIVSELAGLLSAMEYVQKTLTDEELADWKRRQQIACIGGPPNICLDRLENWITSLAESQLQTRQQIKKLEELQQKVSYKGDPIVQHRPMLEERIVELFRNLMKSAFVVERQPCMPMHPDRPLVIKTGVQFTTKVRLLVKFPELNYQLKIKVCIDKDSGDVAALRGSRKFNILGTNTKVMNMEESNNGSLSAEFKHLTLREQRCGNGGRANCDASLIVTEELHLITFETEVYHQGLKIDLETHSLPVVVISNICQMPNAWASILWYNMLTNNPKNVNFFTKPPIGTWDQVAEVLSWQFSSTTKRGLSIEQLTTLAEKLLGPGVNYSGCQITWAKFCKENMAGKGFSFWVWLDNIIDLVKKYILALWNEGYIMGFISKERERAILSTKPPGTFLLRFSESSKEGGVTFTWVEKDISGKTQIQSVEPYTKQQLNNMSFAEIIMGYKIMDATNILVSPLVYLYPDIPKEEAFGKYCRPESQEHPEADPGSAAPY
Briefly: Single STAT3-SH2 binding assay (AlphaLISA). The conditions noted are these: non-multiplexed single assay. The protocol: as §1

Assay [3] has as its system STAT3 reporter HeLa stable cell line. Briefly: STAT3 luciferase reporter gene assay. The class given is cell-based. The conditions noted are these: pretreatment before oncostatin M stimulation (Figure S10). The protocol:
STAT3 reporter HeLa stable cell lines were incubated in a 96-well microplate for 24 hours. Cells were pretreated with test compounds for 1 hour, and 10 ng/ml (w/v) of oncostatin M were applied and incubated for 4 hours. Cells were washed with medium not supplemented with phenol red, and Steady-Glo® reagent (Promega) was applied. After 5 min incubation, the signals were detected by ARVO Light 1420 (PerkinElmer Life Sciences). The relative signal intensity was calculated in each well as the ratio for the mean signal of vehicle.

In assay [4] the target is T2, STAT3(136–705). As to the kind of experiment: Multiplexed Alpha assay, STAT3-SH2 binding (AlphaLISA). The settings on record: multiplexed binding assay; mean and SEM, three independent experiments; read-out: IC50 STAT3-SH2 binding (STAT3). On the procedure:
as §1
Background: Alpha assays give light when donor and acceptor beads are brought close together.

In assay [5] the target is T1, STAT5b(136–703). Briefly: Single STAT5b-SH2 binding assay (AlphaScreen). The settings on record: non-multiplexed single assay. On the procedure:
as §1

In assay [6] the target is T3, Grb2-SH2 (Homo sapiens, UniProt P62993).
T3 construct: made in house
T3 sequence (P62993 whole entry): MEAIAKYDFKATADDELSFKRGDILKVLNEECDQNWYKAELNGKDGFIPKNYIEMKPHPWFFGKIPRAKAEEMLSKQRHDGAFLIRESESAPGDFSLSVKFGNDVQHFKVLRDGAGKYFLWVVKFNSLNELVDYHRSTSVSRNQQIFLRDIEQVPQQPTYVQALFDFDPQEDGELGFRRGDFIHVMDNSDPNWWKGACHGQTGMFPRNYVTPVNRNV
As to the kind of experiment: Grb2-SH2 binding AlphaScreen assay. The settings on record: AlphaScreen assay (Figure S8A). On the procedure: Both AlphaLISA and AlphaScreen are bead-based nonradioactive binding assay systems for detecting biomolecular interactions in a microplate format. The binding of the biological partners brings the donor and acceptor beads into close proximity, and AlphaLISA produces a specific signal around 615 nm and AlphaScreen emits a broad signal between 520 and 620 nm. The assays were performed in a final reaction volume of 25 µL of the assay buffer, which contained 10 mM HEPES-NaOH (pH 7.4), 50 mM NaCl, 1 mM EDTA (pH 8.0), 0.1% (w/v) NP-40, and 10 ng/µL (w/v) BSA in a 96-well microplate at 25°C. […] Streptavidin-coated donor beads (0.25 µg/well) and anti-DIG AlphaLISA acceptor beads (0.25 µg/well) were added and incubated for 90 min before the signals were measured with EnVison Xcite (PerkinElmer Life Sciences). […] Streptavidin-coated donor beads (0.25 µg/well) and anti-FITC AlphaScreen acceptor beads (0.25 µg/well) were added and incubated for 90 min before the signals were measured with EnVison Xcite. […] Streptavidin-coated donor beads (0.50 µg/well), anti-DIG AlphaLISA (0.25 µg/well), and anti-FITC AlphaScreen acceptor beads (0.25 µg/well) were added and incubated for 90 min before the signals were measured with EnVison Xcite. […] The bound state was measured by incubating the labeled peptide and the protein without test compounds. […] The IC50 value was calculated by Graph pad prism 4.0. […]

The structures appear in SMILES notation.

As to `O=C1C=CC(=NC2=C(Cl)C(=O)c3ccccc3C2=O)C=C1` [Compound 1], the IC50 in assay [1] turned out to be 11 ± 0.27 µM; in assay [2] it was 3.8 µM; in assay [4], 5 ± 0.073 µM; in assay [5] it was 10 µM. Besides, the “Effect on STAT3 transcriptional activity” value in assay [3] is “reduced the STAT3 transcriptional activity in a dose-dependent manner”. For the same molecule, the “Inhibition of Grb2-SH2 binding” value in assay [6] is “inhibited neither”.
